Assay results taken from patent publication US10822319B2, “Crystal of DPP-IV long-acting inhibitor and salt” (priority 2016, dated 2020).
Where two headings read alike, the source gives them in different places. One block for each compound: values may come before it.

How the values were obtained:
[1] = Pharmacokinetics in Beagle dogs; assay type: in vivo; conditions: 2 mg/kg (in free form), plasma; for MRT last: read-out: MRT(0−t); for bioavailability: relative to the compound represented by Formula I, read-out: Relative F %
Protocol: Male Beagle dogs were fasted for about 12 h prior to administration and had free access to water. The dogs were also fasted for 4 hours after administration. Blood samples (0.8 mL) were taken from the forelimb vein of the subject Beagle dogs at 0.25, 0.5, 1, 2, 4, 6, 8, 10, 24, 30, 48, and 72 h after administration. The samples were then placed in EDTA-K2 centrifuge tubes, stored at 4° C., and centrifuged for 10 min at a speed of 4000 rpm at 4° C. within 0.5 h after blood collection to separate plasma. The plasma was stored at […] within 1 h after collecting all the plasma.
300 μL of a solution of an internal standard substance in methanol was added to 50 μL of the plasma sample to be tested and a standard curve sample, respectively. The resulting mixture was mixed uniformly by shaking for 5 min, and centrifuged for 10 min at a speed of 13000 rpm. Then 80 μL of supernatant was taken, and 5 μL of the supernatant was pipetted for LC/MS/MS determination, and the chromatogram was recorded.

[2] = Stability test of the crystal of the compound represented by Formula I; assay type: physicochemical
Text: Samples were taken on day 5 or day 10 and tested, respectively, and the results were compared with the initial results.

[3] = male Beagle dogs, crystalline form
[4] = male, Beagle, dog, po, 2 mg/kg, crystalline form
[5] = High Humidity (RH92.5%, 25° C.), Day 5
[6] = High Humidity (RH92.5%, 25° C.), Day 10
[7] = Light Irradiation (6000 lux), Day 5
[8] = Light Irradiation (6000 lux), Day 10
[9] = male, Beagle, dog, oral, 2 mg/kg, crystalline form

AUC(0−t) [1, 3]: 22746 ng·h/mL | AUC(0−∞) [1, 3]: 23508 ng·h/mL | Cmax [1, 3]: 1746 ng/mL | MRT(0−t) [1, 3]: 17.9 h | Tmax [1, 3]: 0.67 h | t1/2 [1, 3]: 16.9 h
SMILES: CS(=O)(=O)c1ccc2c(c1)CN([C@H]1CO[C@H](c3cc(F)ccc3F)[C@@H](N)C1)C2 [The phosphate of the compound represented by Formula I] [Phosphate of (2R,3S,5R)-5-(5-methanesulfonylisoindolin-2-yl)-2-(2,5-difluorophenyl)tetrahydro-2H-pyran-3-amine]

AUC(0-inf) [1, 4]: 15800 ng·h/mL | AUC(0-t) [1, 4]: 15200 ng·h/mL | half-life [1, 4]: 16.4 h | Cmax ([1]; male, Beagle, dog, po, 2 mg/kg, crystalline form, read-out: Cmax): 926 ng/mL | MRT last [1, 4]: 20.6 h | Tmax ([1]; male, Beagle, dog, po, 2 mg/kg, crystalline form, read-out: Tmax): 6 h | bioavailability ([1]; male, Beagle, dog, po, 2 mg/kg): 100%
SMILES: CS(=O)(=O)c1ccc2c(c1)CN([C@H]1CO[C@H](c3cc(F)ccc3F)[C@@H](N)C1)C2 [The compound represented by Formula I, (2R,3S,5R)-5-(5-methanesulfonylisoindolin-2-yl)-2-(2,5-difluorophenyl)tetrahydro-2H-pyran-3-amine]

Content (%) ([2]; 40° C., Day 5): 99.6% | Total impurity (%) ([2]; 40° C., Day 5): 0.31% | Content (%) ([2]; 40° C., Day 10): 99.6% | Total impurity (%) ([2]; 40° C., Day 10): 0.37% | Content (%) ([2]; 60° C., Day 5): 100.2% | Total impurity (%) ([2]; 60° C., Day 5): 0.30% | Content (%) ([2]; 60° C., Day 10): 99.4% | Total impurity (%) ([2]; 60° C., Day 10): 0.33% | Content (%) ([2]; Day 0): 99.1% | Total impurity (%) ([2]; Day 0): 0.39% | Content (%) [2, 5]: 100.3% | Total impurity (%) [2, 5]: 0.27% | Content (%) [2, 6]: 99.9% | Total impurity (%) [2, 6]: 0.32% | Content (%) [2, 7]: 99.5% | Total impurity (%) [2, 7]: 0.33% | Content (%) [2, 8]: 99.3% | Total impurity (%) [2, 8]: 0.44% | Appearance ([2]; all conditions and days (Day 0, 40° C., 60° C., high humidity, light irradiation)): Off-white powdered solid
SMILES: CS(=O)(=O)c1ccc2c(c1)CN([C@H]1CO[C@H](c3cc(F)ccc3F)[C@@H](N)C1)C2 [(2R,3S,5R)-5-(5-methanesulfonylisoindolin-2-yl)-2-(2,5-difluorophenyl)tetrahydro-2H-pyran-3-amine]

AUC(0-inf) [1, 9]: 20300 ng·h/mL | AUC(0-t) [1, 9]: 19500 ng·h/mL | half-life [1, 9]: 16.6 h | Cmax ([1]; male, Beagle, dog, oral, 2 mg/kg, crystalline form, read-out: Cmax): 1220 ng/mL | MRT last [1, 9]: 20.3 h | Tmax ([1]; male, Beagle, dog, oral, 2 mg/kg, crystalline form, read-out: Tmax): 0.75 h | bioavailability ([1]; male, Beagle, dog, oral, 2 mg/kg): 152%
SMILES: CS(=O)(=O)c1ccc2c(c1)CN([C@H]1CO[C@H](c3cc(F)ccc3F)[C@@H](N)C1)C2 [fumarate of (2R,3S,5R)-5-(5-methanesulfonylisoindolin-2-yl)-2-(2,5-difluorophenyl)tetrahydro-2H-pyran-3-amine]
